Laboratory results: patent US20230129034A1, “TREATMENT OF DISEASE WITH ESTERS OF SELECTIVE RXR AGONISTS” (Io Therapeutics, Inc., priority 2017, published 2023)
“Also recorded” adds a separate entry of the source.

Tests used:
FXR/RXR = molecular target: T1, FXR/RXR (Homo sapiens, UniProt P19793); assay: Permissive heterodimer transactivation assay, CV-1 cells, 3x(IBABP/IRI)-tk-Luc; assay type: cell-based; details: 20 hr, luciferase vs GW4064
T1 construct: expressed in transfected cells; host or cells: CV-1
T1 sequence (P19793 whole entry): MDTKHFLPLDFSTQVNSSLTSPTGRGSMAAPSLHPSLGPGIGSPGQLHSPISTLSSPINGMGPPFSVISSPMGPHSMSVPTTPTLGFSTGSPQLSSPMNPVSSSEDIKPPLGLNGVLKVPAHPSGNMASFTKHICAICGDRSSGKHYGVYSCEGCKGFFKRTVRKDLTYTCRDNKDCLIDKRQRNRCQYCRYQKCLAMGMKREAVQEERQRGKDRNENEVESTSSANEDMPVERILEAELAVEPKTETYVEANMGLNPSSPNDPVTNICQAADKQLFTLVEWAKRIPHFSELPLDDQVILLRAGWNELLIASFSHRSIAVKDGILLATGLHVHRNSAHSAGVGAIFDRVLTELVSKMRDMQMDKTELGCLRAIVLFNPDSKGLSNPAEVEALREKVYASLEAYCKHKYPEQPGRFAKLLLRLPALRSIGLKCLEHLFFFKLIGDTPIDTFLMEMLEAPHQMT
T1 sequence (Q96RI1 whole entry partner): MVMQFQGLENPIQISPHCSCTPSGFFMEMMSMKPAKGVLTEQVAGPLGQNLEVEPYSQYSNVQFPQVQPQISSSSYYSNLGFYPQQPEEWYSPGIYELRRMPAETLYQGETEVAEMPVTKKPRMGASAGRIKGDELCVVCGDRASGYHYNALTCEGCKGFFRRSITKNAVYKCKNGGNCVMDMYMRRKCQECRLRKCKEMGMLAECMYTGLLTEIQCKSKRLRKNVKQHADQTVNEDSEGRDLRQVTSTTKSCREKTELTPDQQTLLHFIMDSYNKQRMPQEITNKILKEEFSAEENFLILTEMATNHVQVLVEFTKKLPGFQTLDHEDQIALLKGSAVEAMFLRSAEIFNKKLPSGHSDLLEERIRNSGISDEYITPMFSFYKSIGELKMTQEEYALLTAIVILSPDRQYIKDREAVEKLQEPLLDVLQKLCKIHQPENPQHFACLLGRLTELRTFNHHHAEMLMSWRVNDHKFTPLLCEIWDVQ
From the text: For PPARy: CV-1 cells were transfected with 3x(rAOX/DR1)-tk-Luc reporter gene and an expression vector for PPARy. For FXR:CV-1 cells were transfected with 3x(IBABP/IRI)-tk-Luc reporter gene and vectors for FXR and RXRα. For LXR:CV-1 cells were transfected with 3x(PLTP/LXRE)-tk-Luc reporter gene with vectors for LXRα or LXRβ. For Nurr1: COS7 cells were transfected with 3xNBRE-tk-luc reporter gene and full length Nurr-1 with or without full-length RXRα plasmid. […] Luciferase data were normalized to co-transfected β-gal activity. Luciferase activity was expressed as percent of maximal activity obtained using specific agonists. Rosiglitazone (PPARy), GW4064 (FXR), T0901317 (LXR).

[1] = test system: experimental autoimmune encephalomyelitis (EAE) in C57BL/6 (B6) mice; assay: EAE in C57BL/6 (B6) mice, MOG peptide induced; assay type: in vivo; details: 50 µg i.p. every other day from day 7
Description: Mice were also given 200 ng of pertussis toxin in PBS administered by inter-peritoneal (i.p.) injection on the same day as MOG emulsion injection (day 0) and 2 days later (day 2). […] Mice were scored using the following scale: 0 - Mice have no disease, 1 -Mice have distal limp tail or rear leg weakness (paresis), 1.5 - Mice have distal limp tail and rear leg weakness, 2 - Mice have complete limp tail and rear leg weakness, 2.5 - Mice have complete limp tail and weakness in both rear legs, 3 - Mice have complete limp tail and paralysis in both rear legs, 3.5 - Mice have complete limp tail, paralysis in both rear legs, and forelimb weakness. Mice receiving a score of 3.5 were immediately euthanized.

[2] = test system: CNS infiltrating leukocytes in C57BL/6 (B6) mice; assay: CNS infiltrating cells in EAE B6 mice (flow cytometry, day 20); assay type: in vivo; details: day 20 after immunization
Description: To determine whether a RXR agonist can reduce central nervous system (CNS) infiltrating cells, C57BL/6 (B6) mice were treated as described in Example 6. On day 20 after immunization, mice were sacrificed and perfused with phosphate buffered saline (PBS). Brain and spinal cord tissue was isolated, digested with DNase and LIBERASE DL® (Roche Diagnostics, Indianapolis, IN) for 30 minutes, and homogenized through 70 micron nylon mesh filters. Resulting cells were placed over a Percoll gradient to remove myelin. The remaining cells (microglia and CNS infiltrating cells) were counted, stained for molecules of interest, and run on a flow cytometer. Based on the frequencies obtained by FACS of these cell populations, total cell numbers of CNS infiltrating leukocytes expressing CD45, including CD4^+ T cells and CD11c^+ CD11b^+ myeloid dendritic cells (DC), were calculated.

EAE in SJL mice = assay: EAE in SJL mice, PLP peptide induced; assay type: in vivo; details: for symptoms of EAE in SJL mice: 50 µg i.p. every other day from day 7
Description: To determine whether a RXR agonist or an ester of a RXR agonist can attenuate multiple sclerosis, SJL mice were immunized to induce EAE by s.c. injection at the base of their spine with 200 µL of adjuvant containing 200 µg proteolipid proteins (139-151) (PLP peptide; Peptides International, Louisville, KY) and 400 µg of non-viable M. tuberculosis H37 desiccate emulsified in a mixture of incomplete Freund’s adjuvant and PBS. Mice were also given 150 ng of pertussis toxin in PBS i.p. on the same day as PLP emulsion injection and 2 days later. […] Mice were scored using the scale described in Example 6.

Treg cells = assay: Treg cell differentiation in in vitro cell culture; assay type: cell-based
Th17 cells = assay: Th17 cell differentiation / IL-17 production in vitro; assay type: cell-based
RXRβ = molecular target: T2, RXRβ (Homo sapiens, UniProt P28702); assay: Competitive displacement of [3H]-9CRA from purified receptor; details: 10 nM [3H]-9CRA; read-out: RXR Binding Affinity Ki (nM) RXRβ
T2 construct: an expression construct including a full length RXRα, RXRβ, or RXRy; expressed in transfected cells; host or cells: CV-1
T2 sequence (P28702 1-533): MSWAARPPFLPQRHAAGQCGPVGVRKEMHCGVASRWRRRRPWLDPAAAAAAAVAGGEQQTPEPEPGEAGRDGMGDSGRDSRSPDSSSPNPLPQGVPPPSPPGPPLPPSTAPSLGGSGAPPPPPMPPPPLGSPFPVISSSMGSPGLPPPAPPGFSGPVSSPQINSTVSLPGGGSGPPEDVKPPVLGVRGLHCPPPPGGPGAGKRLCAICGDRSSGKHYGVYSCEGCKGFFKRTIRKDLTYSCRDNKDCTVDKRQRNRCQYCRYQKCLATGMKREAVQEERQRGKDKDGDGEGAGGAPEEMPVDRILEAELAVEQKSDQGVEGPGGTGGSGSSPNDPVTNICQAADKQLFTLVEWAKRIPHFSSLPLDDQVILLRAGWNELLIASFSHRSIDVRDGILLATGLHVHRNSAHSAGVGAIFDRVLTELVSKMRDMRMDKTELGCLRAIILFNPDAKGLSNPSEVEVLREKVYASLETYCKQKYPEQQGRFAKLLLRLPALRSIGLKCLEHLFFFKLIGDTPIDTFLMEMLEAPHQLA
From the text: (§1) Standard errors (±) among independent experiments are indicated.

RXRγ = molecular target: T3, RXRγ (Homo sapiens, UniProt P48443); assay: as above; details: 10 nM [3H]-9CRA; read-out: RXR Binding Affinity Ki (nM) RXRγ
T3 construct: an expression construct including a full length RXRα, RXRβ, or RXRy; expressed in transfected cells; host or cells: CV-1
T3 sequence (P48443 1-463): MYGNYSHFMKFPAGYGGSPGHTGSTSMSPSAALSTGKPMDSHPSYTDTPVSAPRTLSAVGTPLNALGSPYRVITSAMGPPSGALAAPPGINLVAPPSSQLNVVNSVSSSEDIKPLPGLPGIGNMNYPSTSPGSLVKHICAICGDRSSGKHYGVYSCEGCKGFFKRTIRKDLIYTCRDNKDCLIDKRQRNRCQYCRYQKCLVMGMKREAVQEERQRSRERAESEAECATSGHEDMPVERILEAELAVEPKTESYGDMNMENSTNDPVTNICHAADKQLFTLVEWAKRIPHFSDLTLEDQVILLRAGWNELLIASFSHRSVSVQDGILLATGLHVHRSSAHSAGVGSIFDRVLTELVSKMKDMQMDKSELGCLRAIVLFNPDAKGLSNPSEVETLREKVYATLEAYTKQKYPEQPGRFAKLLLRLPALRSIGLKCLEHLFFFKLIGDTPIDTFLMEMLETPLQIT
From the text: as §1

[3] = 50 µg i.p. every other day from day 7, n=6

Structure (SMILES) | activation of FXR/RXR heterodimer (FXR/RXR) | symptoms of EAE (disease severity score) [1] | infiltration of CD4+ cells into the CNS [2] | infiltration of CD11c+ CD11b+ cells (myeloid DC) into the CNS [2] | symptoms of EAE in SJL mice (EAE in SJL mice) | Death from Disease (EAE in SJL mice; [3]) | Disease Incidence (EAE in SJL mice; [3]) | Mean Maximum Score (EAE in SJL mice; [3]) | formation of Treg cells (Treg cells; 1 nM) | production of IL-17 (Th17 cells; 1 nM) | Ki (RXRβ) [nM] | Ki (RXRγ) [nM] | promoting the differentiation of Treg cells, relative to parent form (Treg cells; in vitro cell culture) | inhibiting the differentiation of Th17 cells, relative to parent form (Th17 cells; in vitro cell culture)
CC(/C=C/[C@@H]1C[C@]1(C)c1ccc2c(c1)C(C)(C)CCC2(C)C)=C\C(=O)O [IRX4204, 3,7-dimethyl-6(S),7(S)-methano,7-[1,1,4,4-tetramethyl-1,2,3,4-tetrahydronaphth-7-yl]2(E),4(E) heptadienoic acid] | not to transactivate; also recorded: does not activate | significantly reduces the symptoms of EAE | significant reduction | significant reduction | significantly reduces the symptoms of EAE | 0/6 | 4/6 | 1.5 ± 1.4 | substantially enhances the formation of Treg cells | profoundly inhibits production of IL-17 |  |  |  | 
CCOC(=O)/C=C(C)/C=C/[C@@H]1C[C@]1(C)c1ccc2c(c1)C(C)(C)CCC2(C)C [IRX4204EE, 3,7-dimethyl-6(S),7(S)-methano,7-[1,1,4,4-tetramethyl-1,2,3,4-tetrahydronaphth-7-yl]2(E),4(E) heptadienoic ethyl ester] | very little activity | more effective than IRX4204 | even greater reduction | even greater reduction | greater efficacy than IRX4204 |  |  |  |  |  | > 1000 | > 1000 | less active than its parent form | less active than its parent form
